From paper PMC12264943, “Identification of New Human P2X7 Antagonists Using Ligand- and Structure-Based Virtual Screening” (Journal of Chemical Information and Modeling, 2025) come the findings set out here.

Like-named read-outs stand apart in the source and are kept apart here.

The EC50 is the concentration that produces a half-maximal response. By IC50 is commonly meant the midpoint of a concentration-inhibition curve.

The target in this assay is T1, hP2X7 (Homo sapiens, UniProt Q99572).
T1 construct: expressed in transfected cells; host or cells: HEK-293, stably transfected (gift of E. Adinolfi's group, Ferrara University)
T1 sequence (Q99572 1-595): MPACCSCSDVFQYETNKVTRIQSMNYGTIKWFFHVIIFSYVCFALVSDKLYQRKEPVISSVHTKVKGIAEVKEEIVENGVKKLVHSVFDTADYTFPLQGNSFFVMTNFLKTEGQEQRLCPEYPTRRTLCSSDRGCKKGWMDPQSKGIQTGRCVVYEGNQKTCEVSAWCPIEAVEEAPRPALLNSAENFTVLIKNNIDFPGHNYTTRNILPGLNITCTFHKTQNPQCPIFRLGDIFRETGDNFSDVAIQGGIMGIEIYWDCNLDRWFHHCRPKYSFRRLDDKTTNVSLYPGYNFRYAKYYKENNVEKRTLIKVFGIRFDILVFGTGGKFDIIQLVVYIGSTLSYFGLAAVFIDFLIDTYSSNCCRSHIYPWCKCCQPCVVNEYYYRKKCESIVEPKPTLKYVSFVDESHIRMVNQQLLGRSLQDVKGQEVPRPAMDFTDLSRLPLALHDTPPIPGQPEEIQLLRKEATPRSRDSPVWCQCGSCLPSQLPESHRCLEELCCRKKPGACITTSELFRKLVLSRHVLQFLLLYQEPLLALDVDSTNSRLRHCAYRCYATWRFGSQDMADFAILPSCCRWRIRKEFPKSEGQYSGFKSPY
Briefly: YO-PRO 1 dye uptake assay, HEK-293 cells stably transfected with hP2X7. In kind it is cell-based. The settings on record: for EC50: read-out: ATP EC50. Here is the method:
Astrocytoma 1321 N1 (established by Dr. Gaia Pasqualetto) and HEK-293 (kindly gifted by E. Adinolfi’s group, Ferrara University) both stably transfected with hP2X7, were used to assess the activity of the small molecules selected from the VS. Cells were maintained in DMEM:F12 (PanBiotech) supplemented with 10% FBS, 1% pen-strep, and 150 μg/mL G418 (PanBiotech).
Astrocytoma 1321 N1 cells (2–2.5 × 10^4 cells/well) and HEK-293 cells (4–5 × 10^4 cells/well) expressing hP2X7 were seeded in poly-L-lysine-coated 96-well plates (Sarstedt) 24 h before the experiment. YO-PRO 1 dye was prepared at 5 μM in extracellular solution with low divalent cations (ECS-LD) buffer (147 mM NaCl, 10 mM HEPES, 13 mM glucose, 0.2 mM CaCl2, 2 mM KCl, pH 7.4) and added to cells after washing them with Dulbecco’s phosphate- buffered saline (DPBS) (PanBiotech) and incubated for 20 min at 37 °C. ATP-induced dye uptake, mediated by hP2X7 activation, was monitored using a Clariostar plate reader (excitation: 485 nm; emission: 538 nm) for 30 cycles (75–150 s/cycle), after recording the baseline for five cycles. hP2X7 activation was quantified at cycle 10 by calculating the fluorescence intensity (FI) ratio (Δ(Fcycle 10–F cycle 1)/cycle time).
Compounds 2 and 9, identified as hits, were further evaluated for concentration-dependent inhibition (IC50) of hP2X7 activation in the YO-PRO 1 dye uptake assay using HEK-293 cells stably transfected with hP2X7 (unfortunately, at this point in the study, the stably transfected 1321N1 cells lost P2X7 expression, and we were unable to recover them from frozen aliquots), for which the ATP EC50 was determined to be approximately 1 mM (Supporting material Figure 4C). Seven concentrations (100 to 0.03 μM) were tested, but due to precipitation at 100 μM, the DMSO concentration was increased to 1%.
3 Inhibitory concentration response evaluation of compounds 2 and 9 and their groups highlighted for SAR. […] Compound activity was evaluated along a time of 20 min (75 s per cycle) after ATP addition (700 μM). The fluorescence intensity (FI) values of the first 10 cycles were considered for assessing their ability to inhibit hP2X7. The curves represent three biological replicates (n = 4 per replicate). Data were normalized by setting as 100% the FI recorded by hP2X7 HEK-293 cells incubated in 1% DMSO and stimulated by ATP, and as 0% the FI recorded by the same cells but treated with ECS-LD (assay buffer). (C) Highlighted areas of compound 2 considered for SAR study. R1 refers to the ethyl-benzyl group of the molecules, and R2 and R3 refer to the benzo-(1,3)-dioxol groups. (D) Highlighted areas of compound 9 considered for SAR study. We have defined the area highlighted in yellow and numbered as 1 as the “front” region of the molecule and the one colored in pink and named as 2 as the “back” region of the molecule. L highlights the urea and amide linkers of compounds 2 and 9, respectively.
4 Evaluation of compound 2 and 9 analogue activity using YO-PRO 1 and MPR assays. The activity of compound 2 (A and B) and 9 (C and D) analogues was evaluated in YO-PRO 1 (A and C) and MPR (B and D) assays. The compounds were tested at 10 μM and preincubated for either 20 (YO-PRO 1) or 30 min (MPR). The baseline was recorded for 5 cycles before ATP treatment (1 mM). Fluorescence was recorded for 25 (YO-PRO 1) or 5 min (MPR). The data were normalized by setting as 100% for the fluorescence measured from hP2X7 HEK-293 cells incubated with vehicle (0.1% DMSO) and treated with 1 mM ATP and 0% for the fluorescence recorded by the cells not treated with ATP. The data shown correspond to three independent biological replicates (3 technical replicates per experiment; error bars represent the SEM from the mean values of each biological replicate (n = 3)). The statistical analysis was performed with one-way Anova using Dunnett’s function (P**** < 0.0001; P*** < 0.0003; P** < 0.002; P* < 0.02).

The mark [1] stands for this setting: YO-PRO 1 uptake, HEK-293 hP2X7 cells.
Where [2] appears, read: Table 1, table names no assay, values of 2 and 9 are from YO-PRO 1 dye uptake in hP2X7 HEK-293 cells, read-out: IC50.

`Nc1ncnc2c1ncn2[C@@H]1O[C@H](COP(=O)(O)OP(=O)(O)OP(=O)(O)O)[C@@H](O)[C@H]1O` [ATP, reference compound]: the “Hill Slope of ATP concentration-response curve” value under setting [1] was 1.397. In addition, the EC50 by setting is: (YO-PRO 1 uptake, HEK-293 hP2X7 cells, approximate value) roughly 1000 µM; under setting [1], 1140 ± 239 µM.
Regarding `O=C(NCCc1ccccc1)NC(Cc1ccc2c(c1)OCO2)Cc1ccc2c(c1)OCO2` [Compound 2], the IC50 under setting [2] stood at 1.88 µM and the IC50 (YO-PRO 1 dye uptake, hP2X7 HEK-293 cells, 100 to 0.03 μM, 1% DMSO, read-out: IC50, inhibition of hP2X7 activation) worked out at 1.87 µM.
For the compound `O=C(CSc1ccccc1C(=O)Nc1ccnn1Cc1cccnc1)Nc1ccc2c(c1)OCO2` [Compound 9], the IC50 under setting [2] was 6.82 µM.
